According to patent publication US12528840B2, “Transcription active complex targeting cancer drug from viral protein sequence” (The Regents of the University of California, priority 2020, dated 2026):

Experiments:
Format in all cases: cell-based
[1] = system: Kaposi's sarcoma-associated herpesvirus (KSHV); assay: Total RNA-sequencing of peptide-resistant KSHV-infected B-cells; details: continued peptide incubation, resistant cells vs parental cells
Experimental: FIG. 10. Peptide long-term treatment changes B-cell phenotype. RNA-seq was performed after generating peptide-drug resistant cell population.
The peptide sequence is based on KSHV transactivator protein sequence, and it is expected that the peptide will compete with viral transactivator protein for recruitment of cellular transactivation complex. We continued to incubate with peptide drug in KSHV-naturally infected B-cells and generated resistant cell line (RC). The resistant cells were then used to identify putative drug targets by comparing parental cells with total RNA-sequencing.

MYC [2] = assay: qRT-PCR of MYC expression; details: qRT-PCR with specific primers
Experimental: FIGS. 1A-H. Viral protein sequence based cancer drug. (FIG. 1A) Discovery of hijacking transcription machinery in KSHV reactivating cells (Chen et al., J. Virol 2017). […] (FIG. 1B) Reporter assay. KSHV ORF50 overexpression inhibits MYC activation. (FIG. 1C) Chromatin immunoprecipitation with Mass Spectrometry. Proteins inducibly interact with both ORF50 and RNA polII are shown. […] (FIG. 1E) Mapping of interacting domain. GST-pull down was performed to identify NCoA2 binding domains. Purified NCoA2 was made from recombinant baculovirus infected cells and KSHV ORF50 deletion proteins were made in E. coli. Peptides are then generated as TAT-fusion for cell penetration. (FIG. 1F) ChIP-seq and RNA-seq. ChIP-seq was performed to identify NCOA2 target genes in primary effusion lymphoma cells. NCoA2 localization is highly associated with active genes and localizes with RNA pol II at enhancer regions. […] The qRT-PCR was performed with specific primers. (FIG. 1H) Gene set enrichment analyses (GSEA). RNA sequencing was performed with peptide-treated PEL cells. […] (FIG. 1I) The peptide drug. Wt peptide or mutant peptide was incubated in culture media. Forty-eight hours later, live cells were measured by applying MTS. Cell viability was compared with no-treated samples. No treated sample was set as 1.

MYC target genes = assay: Total RNA sequencing with Gene Set Enrichment Analyses; details: total RNA-sequence 24 hours post-drug treatment, PEL cells
Experimental: FIGS. 1A-H. Viral protein sequence based cancer drug. (FIG. 1A) Discovery of hijacking transcription machinery in KSHV reactivating cells (Chen et al., J. Virol 2017). […] (FIG. 1B) Reporter assay. KSHV ORF50 overexpression inhibits MYC activation. (FIG. 1C) Chromatin immunoprecipitation with Mass Spectrometry. Proteins inducibly interact with both ORF50 and RNA polII are shown. […] (FIG. 1E) Mapping of interacting domain. GST-pull down was performed to identify NCoA2 binding domains. Purified NCoA2 was made from recombinant baculovirus infected cells and KSHV ORF50 deletion proteins were made in E. coli. Peptides are then generated as TAT-fusion for cell penetration. (FIG. 1F) ChIP-seq and RNA-seq. ChIP-seq was performed to identify NCOA2 target genes in primary effusion lymphoma cells. NCoA2 localization is highly associated with active genes and localizes with RNA pol II at enhancer regions. […] The qRT-PCR was performed with specific primers. (FIG. 1H) Gene set enrichment analyses (GSEA). […] Forty-eight hours later, live cells were measured by applying MTS. […]
Thiol(SH)-linked alkylation for the metabolic sequencing of RNA (SLAM seq), an orthogonal-chemistry-based RNA sequencing technology detects 4-thiouridine (s4U) incorporation in RNA species at single-nucleotide resolution. […] IGV viewer was used to visualize sequence reads at MYC region (Chr. 8). […]

MYC [3] = assay: Intracellular staining of MYC in LPS-activated THP-1 cells; details: THP-1, LPS 100 ng/ml, 16 μM, 24 hours
From the text: FIG. 16. Effect of MBK50 on MYC and IRF4 expression in LPS-activated monocytic leukemia cell line THP-1 cells. […] MYC and IRF4 expression levels were examined by intracellular staining of MYC and IRF4 with isotype control staining followed by flow cytometry. FIG. 16(a) A scheme of the experimental procedure. FIG. 16(b) A representative histogram overlay for the MYC expression in THP-1 cells treated with MBK50, mutant control peptide or PBS, with isotype control. The average mean fluorescent intensity (MFI) for MYC expression (n=3) for each treatment is shown in the right panel. FIG. 16(c) A representative histogram overlay for the IRF4 expression (red) in THP-1 cells treated with MBK50, mutant control peptide, or PBS, with isotype control (blue). The average MFI for IRF4 expression for each treatment is shown in the right panel.
MYC is important for monocytic cell proliferation, especially upon LPS stimulation. […] MYC and IRF4 expression levels were examined by intracellular staining of MYC and IRF4 with isotype control staining followed by flow cytometry (FIG. 16a). […] Also, the percentage of THP-1 cells with reduced IRF4 expression was increased by MBK50 treatment compared to mutant control peptide or PBS treatment.

CD14+ monocytes = assay: CD14+ monocyte live/dead staining; details: 16 or 32 μM, 2 days; PBS, LPS, polyIC conditions; vs control peptide or PBS
Experimental: FIG. 13. Effect of MBK50 on CD14+ monocytes. FIG. 13(a) A scheme of the experimental procedure. CD14+ monocytes were prepared with magnetic beads from the PBMC of healthy donors. Cells were washed and cultured at 1×10^6/ml in a 96 well plate (200 μl/well in triplicates) without or with LPS (100 ng/ml) or poly I:C (10 μg/ml) in the presence of MBK (16 or 32 μM) or mutant peptide (32 μM) for 2 days. Live cells were determined using live/dead staining followed by flow cytometry analysis. FIG. 13(b) A representative flow profile with the gating strategy for live cells is shown. FIG. 13(c) Averages percentage of live cells for each culture condition are shown. **p<0.01, ***p<0.001, ****p<0.0001
Monocytic cells are important antigen-presenting cells bridging innate and antigen-specific immune responses. To evaluate the effect of MBK on monocytic cells, CD14+ monocytes were prepared with magnetic beads from the PBMC of healthy donors. Cells were washed and cultured at 1×10^6/ml in a 96 well plate (200 μl/well in triplicates) without or with LPS (100 ng/ml) or poly I:C (10 μg/ml) in the presence of MBK (16 or 32 μM) or mutant peptide (32 μM) for 2 days. Live cells were determined using live/dead staining, followed by flow cytometry analysis.

LSSILQGLYQLDT [MBK50]
latently infected KSHV gene expression [1]: significantly down-regulated
MYC expression (MYC [2]): Down modulation
GSEA of MYC target genes (MYC target genes): highest enrichment scores with zero false discovery rate
GSEA of MYC target genes (MYC target genes; listed as Wt-peptide): enrichment of MYC-target gene down-regulation
MYC expression (MFI) (MYC [3]): significantly reduced
percentage of live cells (CD14+ monocytes): significantly reduced
